row,Compound,melting point
1,"CC(C)C[C@H](NC(=O)[C@@H](NC(=O)c1cncc(-c2ccccc2)c1)[C@@H](C)O)B1O[C@@H]2C[C@@H]3C[C@@H](C3(C)C)[C@]2(C)O1 [H.2.6, 5-Phenyl-pyridine-3-carboxamide, N-[(1S,2R)-1-[[[(1R)-1-[(3aS,4S,6S,7aR)-hexahydro-3a,5,5-trimethyl-4,6-methano-1,3,2-benzodioxaborol-2-yl]-3-methylbutyl]amino]carbonyl]-2-hydroxypropyl]]",135 to 140 °C
2,"Cc1ccc(C(=O)NC[C@H](NC(=O)c2ccc3ccccc3n2)C(=O)N[C@@H](CC(C)C)B(O)O)cc1 [L.2.5, Boronic acid, [(1R)-1-[[(2 S)-3-[(4-methylbenzoyl)amino]-2-[(quinoline-2-carbonyl)amino]-1-oxopropyl]amino]-3-methylbutyl]]",235 to 237 °C
3,Cc1ccc(C(=O)NC[C@H](NC(=O)c2cccc(-c3cccs3)n2)C(=O)N[C@@H](CC(C)C)B(O)O)cc1 [L.2.21],158 to 160 °C

# The remaining lines, values ahead:
row,melting point,Compound
1,190 to 195 °C,"CC(C)C[C@H](NC(=O)[C@@H](NC(=O)c1ccc(-c2ccccc2)cn1)[C@@H](C)O)B(O)O [K.2.7, Boronic acid, [(1R)-1-[[(2S,3R)-3-hydroxy-2-[(5-phenyl-pyridine-2-carbonyl)amino]-1-oxobutyl]amino]-3-methylbutyl]]"
2,232 to 236 °C,"CC(C)C[C@H](NC(=O)[C@@H](NC(=O)c1cc(-c2ccccc2)n[nH]1)[C@@H](C)O)B(O)O [K.2.13, Boronic acid, [(1R)-1-[[(2S,3R)-3-hydroxy-2-[(5-phenyl-2H-pyrazole-3-carbonyl)amino]-1-oxobutyl]amino]-3-methylbutyl]]"
3,220 to 222 °C,"Cc1ccc(C(=O)NC[C@H](NC(=O)c2cccnc2)C(=O)N[C@@H](CC(C)C)B(O)O)cc1 [L.2.4, Boronic acid, [(1R)-1-[[(2 S)-3-[(4-methylbenzoyl)amino]-2-[(pyridine-3-carbonyl)amino]-1-oxopropyl]amino]-3-methyibutyl]]"
